According to PMC11080019, “Synthesis and Biological Profiling of Quinolino-Fused 7-Deazapurine Nucleosides” (ACS Omega, 2024):
Where a name gives a salt, the structure may show the parent alone.

Biological target: T1, T7 RNA polymerase (Escherichia phage T7, UniProt P00573)
T1 construct: purchased New England Biolabs
Assay: In vitro transcription (IVT) with T7 RNA polymerase, 35DNA_A7 template
Format: biochemical
Conditions: 7.5 mM NTPs, 37 °C, 16 h, 35-mer RNA with seven modifications
Description: A^QTP was then used as a substrate for the T7 RNA polymerase in the in vitro transcription (IVT) experiments.[30] We used 35DNA_A7 DNA template encoding for 35-mer RNA containing seven A^Q modifications (Table 4). We used the T7 High Yield RNA Synthesis Kit with a high concentration of NTPs (7.5 mM each) but without any further additives. The reaction time at 37 °C was 16 h. The positive control experiment was performed with all four natural NTPs giving nonmodified transcript 35RNA_A7 (Figure 2, lane 2). The negative control contained only the natural CTP, GTP, and UTP in the absence of ATP (Figure 2, lane 3). The real IVT experiment was performed with A^QTP and three natural NTPs (Figure 2, lane 4). The transcription products were visualized by denaturing 20% denaturing PAGE (Figure 2) and characterized by LC–MS (see Figures S1 and S2 in the SI). […]
Aliquots of the first three reactions (50 ng) were separated by denaturating PAGE (20%) with urea at 23 mV for 1 h and visualized by fluorescence imaging.
Aliquots of the positive control (35RNA_A7) and the modified RNA (35RNA_A^Q7) were analyzed by UPLC-ESI-MS confirming the full transcription without any misincorporation (see Figures S1 and S2 in Supporting Information).

T1 sequence (P00573 whole entry): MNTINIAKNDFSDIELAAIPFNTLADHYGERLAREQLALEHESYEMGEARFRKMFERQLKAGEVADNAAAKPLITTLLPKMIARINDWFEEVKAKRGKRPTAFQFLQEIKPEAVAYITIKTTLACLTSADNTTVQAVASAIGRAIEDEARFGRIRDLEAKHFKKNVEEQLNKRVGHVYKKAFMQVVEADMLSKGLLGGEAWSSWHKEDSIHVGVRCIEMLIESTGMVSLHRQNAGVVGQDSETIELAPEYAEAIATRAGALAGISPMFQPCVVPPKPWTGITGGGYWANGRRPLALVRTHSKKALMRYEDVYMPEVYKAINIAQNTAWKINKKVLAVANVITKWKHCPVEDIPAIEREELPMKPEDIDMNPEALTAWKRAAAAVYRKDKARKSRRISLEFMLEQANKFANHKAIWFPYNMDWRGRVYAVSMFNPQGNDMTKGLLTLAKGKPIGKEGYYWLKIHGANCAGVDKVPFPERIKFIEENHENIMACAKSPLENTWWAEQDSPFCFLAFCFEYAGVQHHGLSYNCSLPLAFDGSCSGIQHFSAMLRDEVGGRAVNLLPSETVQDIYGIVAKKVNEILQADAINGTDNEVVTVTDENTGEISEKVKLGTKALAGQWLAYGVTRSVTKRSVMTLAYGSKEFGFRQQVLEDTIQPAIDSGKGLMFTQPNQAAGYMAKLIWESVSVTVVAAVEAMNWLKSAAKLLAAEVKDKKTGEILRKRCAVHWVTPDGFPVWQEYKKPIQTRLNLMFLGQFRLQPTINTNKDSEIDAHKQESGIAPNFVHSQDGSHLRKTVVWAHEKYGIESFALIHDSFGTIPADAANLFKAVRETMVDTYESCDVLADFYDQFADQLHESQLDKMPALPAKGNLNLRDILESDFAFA

Nc1ncnc2c1c1c3cccnc3ccc1n2[C@@H]1O[C@H](COP(=O)(O)OP(=O)(O)OP(=O)(O)O)[C@@H](O)[C@H]1O [A^QTP, 11-Amino-7-(β-D-ribofuranosyl)pyrimido[5′,4′:4,5]pyrrolo[3,2-f]quinoline 5′-O-Triphosphate Bistriethylammonium Salt]
substrate activity for T7 RNA polymerase in in vitro transcription (in words): moderately efficient substrate
